Patent publication US8703961B2, “Thiazole derivatives for the treatment of diseases such as cancer” (Merck Patent GmbH, priority 2009, dated 2014)
pIC50: −log10 of the molar value.

Tests used:
Test in all cases: filter binding kinase assay
Type in all cases: biochemical
MAPK9 = biological target: T1, MAPK9 (Homo sapiens, UniProt P45984); conditions: derived from % inhibition at 1 μM
T1 construct: purchased
Outline: (§1)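 Kinase activity is measured at room temperature by filter binding, with incorporated radiolabel counted after acid termination. A 5-minute preincubation of compound, enzyme and substrate precedes addition of ATP from a kinase-dependent stock (5, 20 or 50 […]).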

RPS6KA3 = biological target: T2, RPS6KA3 (Homo sapiens, UniProt P51812); conditions: derived from % inhibition at 1 μM
T2 construct: purchased
T2 sequence (P51812 whole entry, species assumed): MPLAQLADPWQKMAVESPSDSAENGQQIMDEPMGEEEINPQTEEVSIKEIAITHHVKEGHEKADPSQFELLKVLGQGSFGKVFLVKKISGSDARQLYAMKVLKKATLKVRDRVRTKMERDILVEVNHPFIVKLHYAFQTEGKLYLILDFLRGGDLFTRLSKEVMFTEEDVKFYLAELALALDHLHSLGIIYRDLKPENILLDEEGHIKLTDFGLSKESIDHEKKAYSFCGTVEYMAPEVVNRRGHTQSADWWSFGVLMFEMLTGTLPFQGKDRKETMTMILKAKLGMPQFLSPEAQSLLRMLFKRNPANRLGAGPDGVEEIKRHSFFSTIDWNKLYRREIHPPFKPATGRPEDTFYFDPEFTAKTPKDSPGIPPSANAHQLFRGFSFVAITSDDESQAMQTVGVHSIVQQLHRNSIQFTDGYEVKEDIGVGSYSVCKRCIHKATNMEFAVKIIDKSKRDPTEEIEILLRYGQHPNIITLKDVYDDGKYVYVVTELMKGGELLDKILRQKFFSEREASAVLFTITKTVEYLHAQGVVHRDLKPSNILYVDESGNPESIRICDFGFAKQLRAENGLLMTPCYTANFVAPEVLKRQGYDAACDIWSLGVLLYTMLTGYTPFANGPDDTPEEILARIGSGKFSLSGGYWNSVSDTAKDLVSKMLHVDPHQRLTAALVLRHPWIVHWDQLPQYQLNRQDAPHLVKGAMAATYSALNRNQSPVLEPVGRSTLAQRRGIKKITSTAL
Outline: as §1

MARK4 = biological target: T3, MARK4 (Homo sapiens, UniProt Q96L34); conditions: derived from % inhibition at 1 μM
T3 construct: purchased
T3 sequence (Q96L34 1-752): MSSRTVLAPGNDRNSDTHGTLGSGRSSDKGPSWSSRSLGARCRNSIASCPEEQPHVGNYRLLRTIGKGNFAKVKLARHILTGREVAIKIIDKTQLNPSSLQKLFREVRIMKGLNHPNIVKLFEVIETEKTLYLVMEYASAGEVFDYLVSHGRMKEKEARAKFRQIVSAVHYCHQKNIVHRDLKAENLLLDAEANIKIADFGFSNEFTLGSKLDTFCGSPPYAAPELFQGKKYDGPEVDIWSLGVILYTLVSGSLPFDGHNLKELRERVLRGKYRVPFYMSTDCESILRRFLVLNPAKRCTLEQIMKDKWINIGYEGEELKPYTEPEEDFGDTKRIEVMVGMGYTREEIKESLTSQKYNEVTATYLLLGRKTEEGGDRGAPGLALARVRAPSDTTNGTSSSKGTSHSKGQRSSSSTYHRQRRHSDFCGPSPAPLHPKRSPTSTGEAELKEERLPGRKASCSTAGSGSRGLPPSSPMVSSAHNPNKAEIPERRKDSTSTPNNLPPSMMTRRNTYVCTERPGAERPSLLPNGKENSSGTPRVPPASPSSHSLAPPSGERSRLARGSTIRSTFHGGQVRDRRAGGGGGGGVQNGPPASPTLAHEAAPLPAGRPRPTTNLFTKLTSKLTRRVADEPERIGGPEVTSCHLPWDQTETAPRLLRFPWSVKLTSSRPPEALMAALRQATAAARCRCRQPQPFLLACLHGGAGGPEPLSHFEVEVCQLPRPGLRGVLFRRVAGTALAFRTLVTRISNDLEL
Outline: as §1

MAP3K11 (MLK3) = biological target: T4, MAP3K11 (MLK3) (Homo sapiens, UniProt Q16584); conditions: for pIC50: derived from % inhibition at 1 μM
T4 construct: purchased
T4 sequence (Q16584 whole entry, species assumed): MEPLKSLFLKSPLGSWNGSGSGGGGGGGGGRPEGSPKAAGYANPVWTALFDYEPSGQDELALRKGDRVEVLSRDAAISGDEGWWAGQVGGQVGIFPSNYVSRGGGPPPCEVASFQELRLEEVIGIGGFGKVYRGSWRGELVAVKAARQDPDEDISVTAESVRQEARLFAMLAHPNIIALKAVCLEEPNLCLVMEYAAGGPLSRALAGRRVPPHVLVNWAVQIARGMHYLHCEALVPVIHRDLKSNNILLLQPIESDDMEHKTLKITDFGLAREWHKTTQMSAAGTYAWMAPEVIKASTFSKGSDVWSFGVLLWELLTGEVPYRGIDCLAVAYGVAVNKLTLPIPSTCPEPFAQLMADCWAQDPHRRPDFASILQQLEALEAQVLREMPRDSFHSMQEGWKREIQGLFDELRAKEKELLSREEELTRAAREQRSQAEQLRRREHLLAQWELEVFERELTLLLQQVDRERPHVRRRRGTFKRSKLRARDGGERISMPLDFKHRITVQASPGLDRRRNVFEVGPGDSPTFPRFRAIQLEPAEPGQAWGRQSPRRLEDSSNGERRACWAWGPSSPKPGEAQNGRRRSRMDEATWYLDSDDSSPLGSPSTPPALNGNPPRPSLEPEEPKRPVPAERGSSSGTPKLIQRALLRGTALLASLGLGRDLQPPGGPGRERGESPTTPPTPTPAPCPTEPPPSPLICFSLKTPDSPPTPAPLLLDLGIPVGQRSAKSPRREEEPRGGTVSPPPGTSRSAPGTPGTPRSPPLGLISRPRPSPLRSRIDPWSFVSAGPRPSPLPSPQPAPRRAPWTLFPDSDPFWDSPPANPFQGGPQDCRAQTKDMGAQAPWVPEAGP
Outline: as §1

SRPK1 = biological target: T5, SRPK1 (Homo sapiens, UniProt Q96SB4); conditions: derived from % inhibition at 1 μM
T5 construct: purchased
T5 sequence (Q96SB4 whole entry, species assumed): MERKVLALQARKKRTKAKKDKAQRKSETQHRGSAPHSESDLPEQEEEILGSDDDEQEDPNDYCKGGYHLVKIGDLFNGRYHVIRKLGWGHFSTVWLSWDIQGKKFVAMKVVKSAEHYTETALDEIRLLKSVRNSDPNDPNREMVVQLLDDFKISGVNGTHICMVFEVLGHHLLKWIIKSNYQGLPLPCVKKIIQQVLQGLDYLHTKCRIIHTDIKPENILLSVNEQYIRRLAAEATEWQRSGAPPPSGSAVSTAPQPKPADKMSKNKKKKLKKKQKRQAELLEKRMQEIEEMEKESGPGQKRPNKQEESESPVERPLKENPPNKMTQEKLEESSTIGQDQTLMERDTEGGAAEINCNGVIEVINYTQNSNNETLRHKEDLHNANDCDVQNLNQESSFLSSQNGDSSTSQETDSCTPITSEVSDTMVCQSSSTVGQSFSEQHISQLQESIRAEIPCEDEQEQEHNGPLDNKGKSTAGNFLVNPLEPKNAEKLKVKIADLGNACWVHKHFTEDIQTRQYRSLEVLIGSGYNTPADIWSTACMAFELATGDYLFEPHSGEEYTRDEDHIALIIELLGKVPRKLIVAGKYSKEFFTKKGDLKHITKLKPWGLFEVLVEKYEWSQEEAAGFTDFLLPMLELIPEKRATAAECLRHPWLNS
Outline: as §1

MAPK14 = biological target: T6, MAPK14 (Homo sapiens, UniProt Q16539); conditions: derived from % inhibition at 1 μM
T6 construct: purchased
T6 sequence (Q16539 whole entry, species assumed): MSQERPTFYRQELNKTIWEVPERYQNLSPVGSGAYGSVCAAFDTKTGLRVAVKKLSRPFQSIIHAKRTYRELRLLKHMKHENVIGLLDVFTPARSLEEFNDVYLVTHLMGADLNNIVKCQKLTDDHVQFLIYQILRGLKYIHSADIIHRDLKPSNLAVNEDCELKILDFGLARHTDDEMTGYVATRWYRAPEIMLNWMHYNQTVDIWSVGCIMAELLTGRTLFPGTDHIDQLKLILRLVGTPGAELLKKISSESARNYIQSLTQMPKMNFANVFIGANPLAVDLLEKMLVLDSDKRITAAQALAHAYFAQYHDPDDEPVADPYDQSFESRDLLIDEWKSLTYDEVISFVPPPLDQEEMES
Outline: as §1

RPS6KB1 = biological target: T7, RPS6KB1 (Homo sapiens, UniProt P23443); conditions: derived from % inhibition at 1 μM
T7 construct: purchased
T7 sequence (P23443 whole entry, species assumed): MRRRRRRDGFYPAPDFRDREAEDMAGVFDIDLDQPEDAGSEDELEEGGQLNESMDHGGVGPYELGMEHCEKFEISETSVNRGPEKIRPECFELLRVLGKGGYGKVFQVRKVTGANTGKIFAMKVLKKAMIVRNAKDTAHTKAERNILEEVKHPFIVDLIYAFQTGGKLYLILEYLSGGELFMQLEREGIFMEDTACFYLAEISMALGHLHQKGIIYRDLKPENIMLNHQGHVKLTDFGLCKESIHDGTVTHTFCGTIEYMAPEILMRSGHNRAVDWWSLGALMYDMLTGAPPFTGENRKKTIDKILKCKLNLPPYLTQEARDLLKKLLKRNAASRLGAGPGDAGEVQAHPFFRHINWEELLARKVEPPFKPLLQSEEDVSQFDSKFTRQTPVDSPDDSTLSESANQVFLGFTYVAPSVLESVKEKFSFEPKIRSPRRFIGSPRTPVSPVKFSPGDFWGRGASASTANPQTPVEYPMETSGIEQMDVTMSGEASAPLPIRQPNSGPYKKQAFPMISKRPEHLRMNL
Outline: as §1

STK11 = biological target: T8, STK11 (Homo sapiens, UniProt Q15831); conditions: derived from % inhibition at 1 μM
T8 construct: purchased
T8 sequence (Q15831 1-433): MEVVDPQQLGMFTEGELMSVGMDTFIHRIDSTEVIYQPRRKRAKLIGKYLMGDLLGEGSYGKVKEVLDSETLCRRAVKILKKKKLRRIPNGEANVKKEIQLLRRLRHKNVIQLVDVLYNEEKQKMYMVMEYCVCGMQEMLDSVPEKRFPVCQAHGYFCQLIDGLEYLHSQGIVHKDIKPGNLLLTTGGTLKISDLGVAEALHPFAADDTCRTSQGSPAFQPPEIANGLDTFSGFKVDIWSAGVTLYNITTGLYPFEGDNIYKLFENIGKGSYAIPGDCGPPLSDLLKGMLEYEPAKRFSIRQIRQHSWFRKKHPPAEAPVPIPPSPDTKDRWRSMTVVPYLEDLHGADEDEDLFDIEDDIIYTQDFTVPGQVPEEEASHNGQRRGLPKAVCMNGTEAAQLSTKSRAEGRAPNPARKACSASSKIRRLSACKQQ
T8 sequence (Q7RTN6 1-431 partner): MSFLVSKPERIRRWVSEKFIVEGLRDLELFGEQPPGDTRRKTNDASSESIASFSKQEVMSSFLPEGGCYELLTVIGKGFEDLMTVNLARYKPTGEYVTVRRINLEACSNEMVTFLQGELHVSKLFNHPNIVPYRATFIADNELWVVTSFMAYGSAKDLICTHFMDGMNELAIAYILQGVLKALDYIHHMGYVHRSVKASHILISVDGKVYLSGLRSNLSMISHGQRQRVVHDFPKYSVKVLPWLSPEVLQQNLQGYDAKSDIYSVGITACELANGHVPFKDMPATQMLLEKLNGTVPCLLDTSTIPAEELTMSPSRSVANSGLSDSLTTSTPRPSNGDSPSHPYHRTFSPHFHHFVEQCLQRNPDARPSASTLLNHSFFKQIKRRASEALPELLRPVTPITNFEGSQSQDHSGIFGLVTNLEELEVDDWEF
T8 sequence (Q9Y376 1-341 partner): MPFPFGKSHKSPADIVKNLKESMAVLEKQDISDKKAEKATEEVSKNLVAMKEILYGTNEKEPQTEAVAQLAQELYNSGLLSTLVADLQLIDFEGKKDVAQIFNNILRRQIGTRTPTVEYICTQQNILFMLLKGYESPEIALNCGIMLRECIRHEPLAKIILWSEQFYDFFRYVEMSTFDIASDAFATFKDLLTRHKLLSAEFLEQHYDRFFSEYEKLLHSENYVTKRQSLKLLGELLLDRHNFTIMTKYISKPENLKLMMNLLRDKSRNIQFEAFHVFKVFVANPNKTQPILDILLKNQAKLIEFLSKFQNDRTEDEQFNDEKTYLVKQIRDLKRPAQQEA
Outline: as §1

T1 sequence (P45984 whole entry, species assumed): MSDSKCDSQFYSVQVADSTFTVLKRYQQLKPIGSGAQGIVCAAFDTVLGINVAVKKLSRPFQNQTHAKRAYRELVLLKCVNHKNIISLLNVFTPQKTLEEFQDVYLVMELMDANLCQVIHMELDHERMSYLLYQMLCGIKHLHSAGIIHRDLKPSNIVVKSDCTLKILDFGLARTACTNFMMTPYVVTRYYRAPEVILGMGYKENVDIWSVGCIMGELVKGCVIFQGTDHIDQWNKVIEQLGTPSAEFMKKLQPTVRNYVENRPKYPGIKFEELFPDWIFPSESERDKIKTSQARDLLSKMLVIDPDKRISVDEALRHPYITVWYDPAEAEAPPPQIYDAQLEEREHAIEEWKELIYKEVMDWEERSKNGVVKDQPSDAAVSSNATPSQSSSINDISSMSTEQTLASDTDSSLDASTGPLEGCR

| SMILES | pIC50 (MAPK9) | pIC50 (RPS6KA3) | pIC50 (MARK4) | pIC50 (MAP3K11 (MLK3)) | pIC50 (SRPK1) | pIC50 (MAPK14) | pIC50 (RPS6KB1) | pIC50 (STK11) | remaining activity at 1 µM (MAP3K11 (MLK3); read-out: residual kinase activity MLK3) |
| --- | --- | --- | --- | --- | --- | --- | --- | --- | --- |
| CC(C)(C)OC(=O)Nc1ncsc1C#CCN1C(=O)c2ccccc2C1=O [Compound A26, tert-butyl{5-[3-(1,3-dioxo-1,3-dihydroisoindol-2-yl)prop-1-ynyl]-thiazol-4-yl}carbamate] | < 6.00 | < 6.00 | < 6.00 | 5.00 to 6.00 | < 6.00 | 4.00 to 5.00 | < 6.00 | 4.00 to 5.00 |  |
| Nc1ncsc1C#Cc1cccc(O)c1 [Compound A27, 3-(4-aminothiazol-5-ylethynyl)phenol] | 5.00 to 6.00 | 5.00 to 6.00 | 5.00 to 6.00 | 4.00 to 5.00 | 5.00 to 6.00 | 5.00 to 6.00 | 5.00 to 6.00 | < 6.00 |  |
| c1ccc(Cc2c[nH]c3ncsc23)cc1 [Compound A7, 6-benzyl-4H-pyrrolo[2,3-d]thiazole] | 4.00 to 5.00 | 5.00 to 6.00 | < 6.00 | 4.00 to 5.00 | 4.00 to 5.00 | 5.00 to 6.00 | 5.00 to 6.00 | 4.00 to 5.00 |  |
| CC(C)(C)OC(=O)Nc1nc(-c2ccncc2)sc1C#CCN1CCOCC1 [Compound A25, tert-butyl[5-(3-morpholin-4-ylprop-1-ynyl)-2-pyridin-4-ylthiazol-4-yl]-carbamate] | < 6.00 | < 6.00 | 4.00 to 5.00 | < 6.00 | < 6.00 | 4.00 to 5.00 | < 6.00 | < 6.00 |  |
| Nc1ncsc1C#Cc1cnc2[nH]ccc2c1 [Compound A22, 5-(1H-pyrrolo[2,3-b]pyridin-5-ylethynyl)thiazol-4-ylamine] | < 6.00 | 4.00 to 5.00 | 4.00 to 5.00 | 6.00 to 8.00 | < 6.00 | 4.00 to 5.00 | 5.00 to 6.00 | < 6.00 | 23% |
